Key:
[1] = test system: recombinant Heliothis virescens ryanodine receptor (expressed in Sf9 cells); experiment: Calcium release assay, Sf9 cells transiently or stably expressing Heliothis virescens ryanodine receptor (Fura-2); assay type: cell-based; conditions: Cpd 5 3 μM; Sf9 transiently expressing H. virescens ryanodine receptor, 72 hr post-transfection; FIG. 4
Procedure: SF9 cells were grown at 27 degrees C. in a Corning 125 ml polycarbonate Erlenmeyer flask to a density of 3.1 million cells per ml in SF900-II serum free media (Gibco catalog no. 10902-088, Invitrogen™, Carlsbad, Calif.). One million cells were transferred to one well of a Corning 6-well, flat bottom cell culture dish (Corning Inc., Acton, Mass., catalog no. 3516). SF900-II media was used to bring the final volume in the dish to 2 ml and the cells were incubated at 27 degrees C. for 21 h. Following the incubation the media was aspirated from the dish and replaced with 1 ml of SF900-II media pre-warmed to 27 degrees C.
In the case of the vectors containing the Cre recognition elements, the transfection solution was mixed in a 1.5 ml microfuge tube by combining 5 ug of pHE7 plasmid, 5 ug of pMLS104 Cre plasmid and 0.5 ug of lacZ reporter plasmid, 15 ug of cellfectin reagent (Invitrogen cat. #10362-010) and SF900-II serum free media (Gibco catalog #10902-088, Invitrogen™, Carlsbad, Calif.) in a total volume of 500 ul. The solution was incubated for 1 hour at room temperature just prior to the transfection.
The transfection was accomplished by adding the transfection solution drop-wise to the dish and incubating 4 h at room temperature with gentle rocking. After the 4 h incubation the media was replaced with 2 ml of SF900-II media pre-warmed to 27 degrees C. and the cells were incubated 3 days at 27 degrees C.
Several drops of a suspension of recombinant Spodoptera frugiperda cell line, Sf9, transiently expressing insect ryanodine receptors were placed on a poly-L-lysine-coated coverslip and allowed to attach. Cells were then rinsed in physiological saline having the following composition (mM): NaCl 130; KCl 5.4; MgCl2 1.2; CaCl2 1.0; NaHCO3 4.2; NaH2P04 7.3; Glucose 10; Sucrose 63; MES 20; pH 6.3. Cells were then bathed in physiological saline containing the calcium sensitive fluoroprobe, Fura-2 AM (2 μM), and Pluronic F127 (0.002%) for 30 min. Cells were rinsed in standard physiological saline for at least 15 min prior to testing. […]
For studies involving the stable recombinant Spodoptera frugiperda cell line, Sf9, (other cell lines could also be used such as Sf21, S2, etc) expressing an insect ryanodine receptor from Drosophila melanogaster, or Heliothis virescens (alternatively receptors from other species such as Myzus persicae, Peregrinus maidis, Aphis gossypii, etc) were grown in T75 (or other appropriate sized) flasks in supplemented Grace's insect medium. […] After a 30 minute equilibration period the cell plate was tested using a Molecular Devices' FlexStation™ system with dual wavelength excitation (340 and 380 nm) and fluorescence emission measured at 510 nm. […]

[2] = test system: control cells without DNA / wild-type Sf9 cells; experiment: Calcium response in control Sf9 cells (without DNA, lipid only, non-transfected, wild type); assay type: cell-based, Spodoptera frugiperda; conditions: Compound 5 3 μM
Excerpt: (§1) Several drops of a suspension of recombinant Spodoptera frugiperda cell line, Sf9, transiently expressing insect ryanodine receptors were placed on a poly-L-lysine-coated coverslip and allowed to attach. Cells were then rinsed in physiological saline having the following composition (mM): NaCl 130; KCl 5.4; MgCl2 1.2; CaCl2 1.0; NaHCO3 4.2; NaH2P04 7.3; Glucose 10; Sucrose 63; MES 20; pH 6.3. Cells were then bathed in physiological saline containing the calcium sensitive fluoroprobe, Fura-2 AM (2 μM), and Pluronic F127 (0.002%) for 30 min. Cells were rinsed in standard physiological saline for at least 15 min prior to testing. Testing was conducted in standard physiological saline, as the cell lines are devoid of functional voltage-gated calcium channels.
Imaging studies were conducted using a Nikon Diaphot microscope with a 40× oil immersion objective (NA 1.3) Image acquisition and processing was performed using the MetaFluor™ imaging system from Universal Imaging Corporation (West Chester, Pa.) Calcium calibration was carried out using the Grynkiewicz equation with a dissociation constant (Kd) of 145 nM for Fura-2 (Grynkiewicz et al., 1985). Cell-attached coverslips were placed in a sealed chamber with physiological saline continuously perfused across the cells using a peristaltic pump. Test compounds solubilized in physiological saline were applied by switching the perfusate source.
(§2) For studies involving the stable recombinant Spodoptera frugiperda cell line, Sf9, (other cell lines could also be used such as Sf21, S2, etc) expressing an insect ryanodine receptor from Drosophila melanogaster, or Heliothis virescens (alternatively receptors from other species such as Myzus persicae, Peregrinus maidis, Aphis gossypii, etc) were grown in T75 (or other appropriate sized) flasks in supplemented Grace's insect medium. Cells were maintained in an incubator at 22° C. until testing. Cells were suspension-loaded with the calcium sensitive fluoroprobe, Fura-2 AM (1-2 μM) and Pluronic F127 (0.002%) in culture medium for 30 minutes under agitation. Cells were then centrifuged and the pellet resuspended in physiological saline having the following composition (mM): NaCl 130; KCl 5.4; MgCl2 1.2; CaCl2 1.0; NaHCO3 4.2; NaH2P04 7.3; Glucose 10; Sucrose 63; MES 20; pH 6.3 at approximately 150,000-200,000 cells per well (96-well plate). After a 30 minute equilibration period the cell plate was tested using a Molecular Devices' FlexStation™ system with dual wavelength excitation (340 and 380 nm) and fluorescence emission measured at 510 nm. Test and control samples were added using integrated fluidics and the intracellular calcium monitored over a 2 minute period.

[3] = molecular target: native cockroach ryanodine receptors (roach femoral muscle membranes) (Periplaneta americana, UniProt A0ABQ8T696); experiment: Radioligand displacement ([3H]-GN analog Cpd 1) on roach femoral muscle membranes; assay type: binding; conditions: displacement of [3H]-Cpd 1, roach muscle membranes, 60 min at 32° C.; read-out: Displacement IC50 (nM) P. americana
Procedure: Binding to Roach Femoral Muscle Membranes:
Assays were carried out in triplicate.

[4] = molecular target: T1, recombinant Drosophila melanogaster ryanodine receptors (expressed in Sf9 cells) (Drosophila melanogaster, UniProt Q24498); assay type: cell-based; conditions: receptor expressed in Sf9 cells
T1 construct: expressed in transfected cells
Procedure: The Spodoptera frugiperda cell line Sf9 used for transfection studies, was maintained in Sf-900 II SFM medium (Invitrogen Life Technologies™, Carlsbad, Calif.) in T-75 flasks incubated at 27° C. It is understood that those skilled in the art might choose alternative cell types such as the Spodoptera frugiperda cell line Sf21 or the Drosophila cell line S2. For the purpose of general handling and propagation, cells were suspended through scraping or agitation and a volume of cell suspension was added to each well of a poly-L-lysine coated 96-well, glass-bottom plate so as to provide 70-80% confluence. Cells were maintained in an incubator at 27° C. until testing.
SF900-II media was used to bring the final volume in the dish to 2 ml and the cells were incubated at 27 degrees C. for 21 h. Following the incubation the media was aspirated from the dish and replaced with 1 ml of SF900-II media pre-warmed to 27 degrees C.
The transient transfection was carried out following an InsectSelect BSD System manual (Invitrogen Life Technologies™, Carlsbad, Calif.). […] The transfection was accomplished by adding the transfection solution drop-wise to the dish and incubating 4 h at room temperature with gentle rocking. […]
as §1
Cell-attached coverslips were placed in a sealed chamber with physiological saline continuously perfused across the cells using a peristaltic pump. Test compounds solubilized in physiological saline were applied by switching the perfusate source.
as §2

Cc1cccc(C(=O)NC(C)C)c1NC(=O)c1cc(C(F)(F)F)nn1-c1ncccc1Cl [Cpd 5, 1-(3-Chloro-2-pyridinyl)-N-[2-methyl-6-[[(1-methylethyl)amino]carbonyl]phenyl]-3-(trifluoromethyl)-1H-pyrazole-5-carboxamide]
cytosolic [Ca2+] response [1]: increase in cytosolic [Ca^2+] | calcium response in control cells without DNA [2]: No significant calcium responses | IC50 [3]: < 300 nM | Calcium Release Threshold (nM) D. melanogaster [4]: <300 nM
